For experiment [1], the target named is T1, SIK3 kinase (aa59-365, Thermo Fisher) (Homo sapiens, UniProt Q9Y2K2).
T1 construct: SIK3 kinase (aa59-365, Thermo Fisher); purchased Thermo Fisher
The experiment in a line: Biochemical activities determination for SIK3 protein (TR-FRET). As to conditions: 125 uM ATP, 0.5 μM STK1 substrate. On the procedure:
3. Biochemical Activities Determination for SIK3 Protein
Compounds were tested for inhibition of SIK3 kinase (aa59-365, Thermo Fisher) in assays based on the time-resolved fluorescence-resonance energy transfer (TR-FRET) methodology. The assays were carried out in 384-well low volume white plates in a reaction mixture containing SIK3 kinase, 125 uM ATP, 0.5 μM STK1 substrate and 0-10 μM compound in buffer containing 25 mM Tris, 0.01% Trition X-100, 0.5 mM EGTA, 5 mM MgCl2, 2.5 mM DTT, PH=7.5. The kinase was incubated with compound for 60 minutes at room temperature and the reaction was initiated by the addition of ATP and STK1 substrate. After reaction at room temperature for 180 minutes, an equal volume of stop/detection solution was added according to the manufacture's instruction (CisBio Bioassays). The stop/detection solution contained STK Antibody-Cryptate and XL665-conjugated streptavidin (Cat: 62ST1PEC, Cisbio) in Detection Buffer (Cat: 62SDBRDF, Cisbio). Plates were sealed and incubated at room temperature for overnight, and the TR-FRET signals (ratio of fluorescence emission at 665 nm over emission at 620 nm with excitation at 337 nm wavelength) were recorded on a PHERAstar FS plate reader (BMG Labtech). Phosphorylation of STK1 substrate led to the binding of STK Antibody-Cryptate to the biotinylated STK1 substrate, which places fluorescent donor (Eu^3+ crypate) in close proximity to the accepter (Streptavidin-XL665), thus resulting in a high degree of fluorescence resonance energy transfer from the donor fluorophore (at 620 nm) to the acceptor fluorophore (at 665 nm). […] The IC50 for each compound was derived from fitting the data to the four-parameter logistic equation by Dotmatics.

Experiment [2] concerns the target T2, SIK2 kinase (full length, Thermo Fisher) (Homo sapiens, UniProt Q9H0K1).
T2 construct: SIK2 kinase (full length, Thermo Fisher); purchased Thermo Fisher
Briefly: Biochemical activities determination for SIK2 protein (TR-FRET). The note with it: 80 uM ATP, 0.5 μM substrate. On the procedure: 2. Biochemical Activities Determination for SIK2 Protein
(§1) Compounds were tested for inhibition of SIK2 kinase (full length, Thermo Fisher) in assays based on the time-resolved fluorescence-resonance energy transfer (TR-FRET) methodology. The assays were carried out in 384-well low volume white plates in a reaction mixture containing SIK2 kinase, 80 uM ATP, 0.5 μM SIK1 substrate and 0-10 μM compound in buffer containing 25 mM Tris, 0.01% Trition X-100, 0.5 mM EGTA, 5 mM MgCl2, 2.5 mM DTT, pH=7.5. The kinase was incubated with compounds for 60 minutes at room temperature and the reaction was initiated by the addition of ATP and STK1 substrate. After reaction at room temperature for 180 minutes, an equal volume of stop/detection solution was added according to the manufacture's instruction (CisBio Bioassays). The stop/detection solution contained STK Antibody-Cryptate and XL665-conjugated streptavidin (Cat: 62ST1PEC, Cisbio) in Detection Buffer (Cat: 62SDBRDF, Cisbio). Plates were sealed and incubated at room temperature for overnight, and the TR-FRET signals (ratio of fluorescence emission at 665 nm over emission at 620 nm with excitation at 337 nm wavelength) were recorded on a PHERAstar FS plate reader (BMG Labtech). Phosphorylation of STK1 substrate led to the binding of STK Antibody-Cryptate to the biotinylated STK1 substrate, which places fluorescent donor (Eu^3+ crypate) in close proximity to the accepter (Streptavidin-XL665), thus resulting in a high degree of fluorescence resonance energy transfer from the donor fluorophore (at 620 nm) to the acceptor fluorophore (at 665 nm). […] The IC50 for each compound was derived from fitting the data to the four-parameter logistic equation by Dotmatics.
For orientation: Time-resolved FRET reads energy transfer from a long-lived donor to a nearby acceptor.

Experiment [3] has as its target T3, SIK1 kinase (aa1-303, Thermo Fisher) (Homo sapiens, UniProt P57059).
T3 construct: SIK1 kinase (aa1-303, Thermo Fisher); purchased Thermo Fisher
The experiment in a line: Biochemical activities determination for SIK1 protein (TR-FRET). The note with it: 110 uM ATP, 0.5 μM STK1 substrate. On the procedure: 1. Biochemical Activities Determination for SIK1 Protein
as §1, with “of SIK1” for “of SIK2”, “kinase (aa1-303,” for “kinase (full length,”, “containing SIK1” for “containing SIK2”, “kinase, 110” for “kinase, 80”, “μM STK1” for “μM SIK1”, “biotinylated […]” for “biotinylated STK1”

T2 sequence (Q9H0K1 whole entry): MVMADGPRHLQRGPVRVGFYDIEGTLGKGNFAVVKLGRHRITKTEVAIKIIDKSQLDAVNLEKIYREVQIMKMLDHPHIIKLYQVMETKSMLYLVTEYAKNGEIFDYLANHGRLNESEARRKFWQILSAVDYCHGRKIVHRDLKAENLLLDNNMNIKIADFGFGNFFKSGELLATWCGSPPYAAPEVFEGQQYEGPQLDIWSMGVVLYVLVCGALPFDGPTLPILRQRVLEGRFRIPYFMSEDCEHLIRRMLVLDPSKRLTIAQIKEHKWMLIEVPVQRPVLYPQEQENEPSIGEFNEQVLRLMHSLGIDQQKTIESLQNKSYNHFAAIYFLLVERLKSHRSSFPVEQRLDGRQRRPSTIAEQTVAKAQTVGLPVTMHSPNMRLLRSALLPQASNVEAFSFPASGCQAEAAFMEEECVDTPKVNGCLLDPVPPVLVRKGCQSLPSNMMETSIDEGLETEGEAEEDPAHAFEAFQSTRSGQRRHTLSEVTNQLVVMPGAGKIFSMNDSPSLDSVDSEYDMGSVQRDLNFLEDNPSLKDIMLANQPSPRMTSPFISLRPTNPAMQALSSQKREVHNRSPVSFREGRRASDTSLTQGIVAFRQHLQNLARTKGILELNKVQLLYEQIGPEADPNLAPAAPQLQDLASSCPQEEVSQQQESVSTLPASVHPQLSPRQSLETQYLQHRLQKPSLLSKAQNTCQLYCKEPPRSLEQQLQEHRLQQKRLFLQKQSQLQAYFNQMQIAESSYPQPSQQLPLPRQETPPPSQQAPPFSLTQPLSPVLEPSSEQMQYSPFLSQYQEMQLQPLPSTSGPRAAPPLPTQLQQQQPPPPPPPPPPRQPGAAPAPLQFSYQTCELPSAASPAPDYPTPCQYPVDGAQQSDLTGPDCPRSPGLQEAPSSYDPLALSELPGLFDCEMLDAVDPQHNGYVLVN
T1 sequence (Q9Y2K2 59-365): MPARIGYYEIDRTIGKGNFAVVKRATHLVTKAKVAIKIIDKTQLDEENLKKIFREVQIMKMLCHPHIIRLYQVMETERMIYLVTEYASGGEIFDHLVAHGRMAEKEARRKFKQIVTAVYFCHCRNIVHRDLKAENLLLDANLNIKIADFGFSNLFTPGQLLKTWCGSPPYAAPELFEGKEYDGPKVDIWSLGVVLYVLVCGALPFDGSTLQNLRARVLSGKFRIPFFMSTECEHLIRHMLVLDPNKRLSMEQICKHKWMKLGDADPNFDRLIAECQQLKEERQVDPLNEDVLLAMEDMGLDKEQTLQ
T3 sequence (P57059 1-303): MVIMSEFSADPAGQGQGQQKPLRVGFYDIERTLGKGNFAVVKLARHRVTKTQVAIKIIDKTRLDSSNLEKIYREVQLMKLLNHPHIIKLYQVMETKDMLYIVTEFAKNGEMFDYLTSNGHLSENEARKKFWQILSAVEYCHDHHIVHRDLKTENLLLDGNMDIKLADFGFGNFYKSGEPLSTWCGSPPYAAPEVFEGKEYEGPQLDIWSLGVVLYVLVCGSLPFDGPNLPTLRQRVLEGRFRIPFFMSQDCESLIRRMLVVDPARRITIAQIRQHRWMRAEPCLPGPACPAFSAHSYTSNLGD

In general, IC50 refers to the concentration that gives 50% inhibition. A low value points to greater potency. Regarding `COc1cc(-c2coc3cc(-c4cnn(C)c4)ccc23)cc2c1C(=O)N(C1CC1)CC2` [Compound 27, 2-cyclopropyl-8-methoxy-6-(6-(1-methyl-1H-pyrazol-4-yl)benzofuran-3-yl)-3,4-dihydroisoquinolin-1 (2H)-one], the half-inhibitory concentration (IC50) in experiment [1] stood at 72 nM; in experiment [2], 34 nM; in experiment [3], 1130 nM.

With `COc1cc(-c2coc3cc(-c4cnn(C)c4)ccc23)cc2c1C(=O)N(CC(F)(F)F)CCO2` [Compound 28, 6-methoxy-8-(6-(1-methyl-1H-pyrazol-4-yl)benzofuran-3-yl)-4-(2,2,2-trifluoroethyl)-3,4-dihydrobenzo[f][1,4]oxazepin-5 (2H)-one], the values for the IC50 in experiment [1], in experiment [2] and in experiment [3] were 281 nM, 140 nM and 3940 nM, respectively.

Take `COc1cc(-c2coc3cc(-c4cnn(C)c4)ccc23)cc2c1C(=O)N(CC(F)(F)F)[C@@H](C)C2` [Compound 29A, (S)-8-methoxy-3-methyl-6-(6-(1-methyl-1H-pyrazol-4-yl)benzofuran-3-yl)-2-(2,2,2-trifluoroethyl)-3,4-dihydroisoquinolin-1 (2H)-one]: the IC50 is 42 nM in experiment [1], 15 nM in experiment [2] and 216 nM in experiment [3].

Turning to `COc1cc(-c2coc3cc(-c4cnn(C)c4)ccc23)cc2c1C(=O)N(CC(F)(F)F)[C@H](C)C2` [Compound 29B, (R)-8-methoxy-3-methyl-6-(6-(1-methyl-1H-pyrazol-4-yl)benzofuran-3-yl)-2-(2,2,2-trifluoroethyl)-3,4-dihydroisoquinolin-1 (2H)-one], the half-inhibitory concentration (IC50) turned out to be 374 nM in experiment [1], 178 nM in experiment [2] and 5980 nM in experiment [3].

Take `COc1cc(-c2coc3cc(-c4cnn(C)c4)ccc23)cc2c1C(=O)N(Cc1ccncc1)CC2` [Compound 30, 8-methoxy-6-(6-(1-methyl-1H-pyrazol-4-yl)benzofuran-3-yl)-2-(pyridin-4-ylmethyl)-3,4-dihydroisoquinolin-1 (2H)-one]: the IC50 in experiment [1] amounted to 1110 nM; in experiment [2], 531 nM; in experiment [3], 2610 nM.

With `COc1cc(-c2coc3cc(-c4cnn(C)c4)ccc23)cc2c1C(=O)N(Cc1ccccc1)CC2` [Compound 31, 2-benzyl-8-methoxy-6-(6-(1-methyl-1H-pyrazol-4-yl)benzofuran-3-yl)-3,4-dihydroisoquinolin-1 (2H)-one], the IC50 in experiment [1] amounted to 882 nM; in experiment [2] it was 673 nM; in experiment [3], 5450 nM.

Turning to `Cn1cc(-c2ccc3c(-c4ccc(C#N)cc4)coc3c2)cn1` [Compound 32, 4-(6-(1-methyl-1H-pyrazol-4-yl)benzofuran-3-yl)benzonitrile], the results for the IC50 in experiment [1], in experiment [2] and in experiment [3] were 829 nM, 96 nM and 1880 nM, respectively.

For the compound `COc1cc(-c2coc3cc(-c4cnn(C)c4)ccc23)cc2c1C(=O)N(CC(F)(F)F)CC2(C)C` [Compound 33, 8-methoxy-4,4-dimethyl-6-(6-(1-methyl-1H-pyrazol-4-yl)benzofuran-3-yl)-2-(2,2,2-trifluoroethyl)-3,4-dihydroisoquinolin-1 (2H)-one], the 50% inhibitory concentration (IC50) was found to be 156 nM in experiment [1], 82 nM in experiment [2] and 9100 nM in experiment [3].

With `COc1cc(-c2coc3cc(-c4cnn(C)c4)ccc23)cc(OC)c1-c1nnc(C)o1` [Compound 34, 2-(2,6-dimethoxy-4-(6-(1-methyl-1H-pyrazol-4-yl)benzofuran-3-yl)phenyl)-5-methyl-1,3,4-oxadiazole], the half-maximal inhibitory concentration (IC50) in experiment [1] was found to be 420 nM; in experiment [2], 239 nM; in experiment [3], 2680 nM.

As for `COc1cc(-c2coc3cc(-c4cnn(C)c4)ccc23)cc(OC)c1-c1nnc(C2CC2)o1` [Compound 35, 2-cyclopropyl-5-(2,6-dimethoxy-4-(6-(1-methyl-1H-pyrazol-4-yl)benzofuran-3-yl)phenyl)-1,3,4-oxadiazole], the IC50 in experiment [1] was determined as 255 nM; in experiment [2], 132 nM; in experiment [3] it was 2080 nM.

As for `CCc1nnc(-c2c(OC)cc(-c3coc4cc(-c5cnn(C)c5)ccc34)cc2OC)o1` [Compound 36, 2-(2,6-dimethoxy-4-(6-(1-methyl-1H-pyrazol-4-yl)benzofuran-3-yl)phenyl)-5-ethyl-1,3,4-oxadiazole], the results for the IC50 in experiment [1], in experiment [2] and in experiment [3] were 305 nM, 144 nM and 2090 nM, respectively.

Take `COc1cc(-c2coc3cc(-c4cnn(C5CN(C)C5)c4)ccc23)cc(OC(F)F)c1C(=O)N[C@@H]1C[C@@H]1F` [Compound 37, 2-(difluoromethoxy)-N-((1R,2S)-2-fluorocyclopropyl)-6-methoxy-4-(6-(1-(1-methylazetidin-3-yl)-1H-pyrazol-4-yl)benzofuran-3-yl)benzamide]: the concentration for half-maximal inhibition (IC50) was 4.2 nM in experiment [1], 1.4 nM in experiment [2] and 25 nM in experiment [3].

For the compound `COc1cc(-c2coc3cc(-c4cnn(C5CCN(C)C5)c4)ccc23)cc(OC(F)F)c1C(=O)N[C@@H]1C[C@@H]1F` (stereo partly drawn) [Compound 38, 2-(difluoromethoxy)-N-((1R,2S)-2-fluorocyclopropyl)-6-methoxy-4-(6-(1-(1-methylpyrrolidin-3-yl)-1H-pyrazol-4-yl)benzofuran-3-yl)benzamide], the IC50 in experiment [1] was determined as 3.9 nM; in experiment [2], 1.7 nM; in experiment [3] it was 24 nM.

Turning to `COc1cc(-c2coc3cc(-c4cnn(C5CCN(C)CC5)c4)ccc23)cc(OC(F)F)c1C(=O)N[C@@H]1C[C@@H]1F` [Compound 39, 2-(difluoromethoxy)-N-((1R,2S)-2-fluorocyclopropyl)-6-methoxy-4-(6-(1-(1-methylpiperidin-4-yl)-1H-pyrazol-4-yl)benzofuran-3-yl)benzamide], the concentration for half-maximal inhibition (IC50) in experiment [1] was found to be 4.1 nM; in experiment [2], 1.7 nM; in experiment [3] it was 25 nM.

As to `O=C1c2c(cc(-c3coc4cc(-c5cnn(C6CCOC6)c5)ccc34)cc2OC(F)F)CCN1CC(F)(F)F` (stereo not drawn) [Compound 40, 8-(difluoromethoxy)-6-(6-(1-(tetrahydrofuran-3-yl)-1H-pyrazol-4-yl)benzofuran-3-yl)-2-(2,2,2-trifluoroethyl)-3,4-dihydroisoquinolin-1 (2H)-one], the 50% inhibitory concentration (IC50) in experiment [1] came to 31 nM; in experiment [2] it was 14 nM; in experiment [3], 537 nM.
